# Measurements: US11066421B1, “Synthetic cinchona alkaloids against cancer” (Ares Pharmaceuticals, LLC, priority 2021, dated 2021)
# Where two headings read alike, the source gives them in different places.
# Tests used:
# NALM-6 = assay: MTT cytotoxicity assay, NALM-6; assay type: cell-based, human; conditions: read-out: IC50 against NALM-6
# Experimental: (§1) Human B-lineage acute lymphoblastic leukemia (ALL) cell line NALM-6 and T-lineage ALL/lymphoma cell line MOLT-3 were obtained from American Type Culture Collection (Manassas, Va.). Cell lines were propagated in RPMI 1640 supplemented with 10% FCS, 4 mM glutamine, 100 units/ml penicillin G, and […] streptomycin sulfate. All tissue culture reagents were obtained from Life Technologies Inc. (Life Technologies, Inc., Gaithersburg, Md.). Cell lines were cultivated for a minimum of two passages after thawing prior to experimentation.
# (§2) The cytotoxicity of the compounds were tested against human ALL cell lines using MTT assays (Roche Molecular Biochemicals, Indianapolis, Ind.), as described previously R. K. Narla et al., 1998, Clin Cancer Res 4:1405-14). Briefly, exponentially growing tumor cells were seeded into a 96-well plate at a density of 4×10^4 cells/well and incubated in medium containing the cinchona alkaloid compounds at concentrations ranging from 0.7 to 100 μM for 48 h at 37° C. in a humidified 5% CO2 atmosphere. To each well, 10 μL of MTT (final concentration, 0.5 mg/ml) was added, and the plates were incubated at 37° C. for 4 h to allow MTT to form formazan crystals by reacting with metabolically active cells. The formazan crystals were solubilized overnight at 37° C. in a solution containing 10% SDS and 0.01 M HCl. The absorbance of each well was measured in a microplate reader (Labsystems) at 540 nm and a reference wavelength of 690 nm. To translate the A540 values into the number of live cells in each well, the A540 values were compared to those on standard A540 versus cell number curves generated for each cell line. The percentage of survival was calculated using the formula: % survival=[Live cell number (test)/Live cell number (control)]×100. The IC50 values were calculated by nonlinear regression analysis using the graphed Prism Software version 2.0 (GraphPad Software, Inc., San Diego, Calif.).
# MOLT-3 = assay: MTT cytotoxicity assay, MOLT-3; assay type: cell-based, human; conditions: read-out: IC50 against MOLT-3
# Experimental: as §1, §2
# [1] = system: mammary tumors of MMTV/neu transgenic mice; assay: MMTV/neu transgenic mouse model of HER2+ breast cancer; assay type: in vivo; conditions: 9-week observation; for tumor shrinkage and tumor growth: AP-8 2 mg/kg i.p. twice daily, paclitaxel 6.7 mg/kg, gemcitabine 33.7 mg/kg; for prevention of tumor progression compared with AP-8: paclitaxel 6.7 mg/kg i.p., gemcitabine 33.7 mg/kg i.p.
# Description: The predictive value of genetically engineered mouse (GEM) models to predict the clinical effectiveness of anti-cancer drugs is well established (Richmond A, Su Y. Mouse xenograft models vs GEM models for human cancer therapeutics. Dis Model Mech. 2008; 1(2-3):78-82. doi:10.1241-2/dmm.0.000976). We used the transgenic mouse model of HER2+ chemotherapy-resistant breast cancer to examine the in vivo anti-cancer activity of AP-8. Overexpression of the wild type Neu in the mammary glands of transgenic mice induces metastatic breast cancer. Accordingly, in the MMTV/Neu transgenic strain, the wild-type neu is overexpressed in the mammary gland under the control of the MMTV long terminal repeat. This animal model has been used to analyze the efficacy of new therapeutic approaches to prevent or treat Her2/neu overexpressing malignancies (Uckun, Dibirdik). MMTV/Neu transgenic mice [FVB/N-TgN(MMTV/neu)202MUL; Jackson Laboratory, Bar Harbor, Me.] were bred to produce multiple litters in a controlled SPF environment (12 h light/12 h-dark photoperiod, 22±1° C., 60±10% relative humidity). All mice were housed in microisolator cages (Lab Products, Inc., Maywood, N.Y., USA) containing autoclaved bedding in a controlled specific pathogen-free (SPF) environment (12 h light/12 h-dark photoperiod, 22±1° C., 60±10% relative humidity). Animal studies were approved by the institutional Animal Care and Use Committee of Drug Discovery Enterprises and all animal care procedures conformed to the Guide for the Care and Use of Laboratory Animals of the National Research Council. The genotype of mice was confirmed by multiplex polymerase chain reaction (PCR) tests as previously reported (F. M. Uckun et al., 2007, Bioorganic Med. Chem. 15:800-14; I. Dibirdik et al., 2010, J Nanomed and Nanotechnol. 1:001-4).
# Neu transgenic mice carrying one or more tumors were randomly placed in the study. For the evaluation of tumor kinetics, tumor-bearing mice were randomly assigned to either vehicle control or treatment groups. Tumor growth was determined by the measurement of tumors with a caliper in three dimensions three days a week and expressed as tumor volume in cubic millimeters (mm^3). Tumor volumes were calculated using the formula for the volume of a prolate spheroid, V=4/3×3.14×length/2×width/2×depth/2. Due to the large heterogeneity in transgenic tumor volumes on day 0, tumor growth for each mouse was normalized to the starting volume for that particular tumor. Therefore, each mouse also served as its own control, and the tumor growth curves were generated to show the rate of change in tumor volumes.
# AP-8 (50 μg˜2 mg/kg in 50 μL DMSO as vehicle) (10 mice, 12 target mammary tumors, Initial average tumor volume=787±125 mm^3) was administered by twice daily intraperitoneal injections on 5 consecutive days per week. Paclitaxel (10 mice, 13 target mammary tumors, Initial average tumor volume=554±79 mm^3) was administered intraperitoneally on days 1, 3, and 5 of each week at a dose level of 6.7 mg/kg ([…]). Gemcitabine (13 mice, 18 target mammary tumors, Initial average tumor volume=549±60 mm^3) was administered intraperitoneally on days 1 and 8 every 4 weeks at a dose level of 33.7 mg/kg (˜1 g/m^2). Control mice (8 mice, 10 mammary tumors, Initial average tumor volume=293±61 mm^3) were treated by twice daily intraperitoneal injections of vehicle alone (50 μL DMSO) on 5 consecutive days per week. […]
Compound,IC50 (NALM-6; 48 h) [µM],IC50 (MOLT-3; 48 h) [µM],further results
"2,4,6-Tri (9-O-dihydrocinchonidinyl)pyrimidine [AP-6]",6,11.4,–
"2,4,6-Tri(9-O-cinchonidinyl)pyrimidine [AP-2]",11.4,5.8,–
"C=CC1CN2CCC1CC2C(Oc1cc(OC(c2ccnc3ccc(OC)cc23)C2CC3CCN2CC3C=C)nc(OC(c2ccnc3ccc(OC)cc23)C2CC3CCN2CC3C=C)n1)c1ccnc2ccc(OC)cc12 (single isomer, unassigned) [AP-3, 2,4,6-Tri(9-O-quininyl)pyrimidine]",3.6,4.5,–
"C=CC1CN2CCC1CC2C(Oc1cc(OC(c2ccnc3ccc(OC)cc23)C2CC3CCN2CC3C=C)nc(OC(c2ccnc3ccc(OC)cc23)C2CC3CCN2CC3C=C)n1)c1ccnc2ccc(OC)cc12 (single isomer, unassigned) [AP-4, 2,4,6-Tri (9-O-quinidinyl)pyrimidine]",2.8,3.1,–
"CC[C@@H]1CN2CCC1C[C@@H]2C(Oc1cc(O[C@@H](c2ccnc3ccc(OC)cc23)[C@@H]2CC3CCN2C[C@@H]3CC)nc(OC(c2ccnc3ccc(OC)cc23)[C@H]2CC3CCN2C[C@H]3CC)n1)c1ccnc2ccc(OC)cc12 (some centres unmarked) [AP-7, 2,4,6-Tri (9-O-dihydroquininyl)pyrimidine]",–,–,"IC50 (NALM-6; Homo sapiens, NALM-6, 48 h): 3.3 µM; IC50 (MOLT-3; Homo sapiens, MOLT-3, 48 h): 3.5 µM"
"Nc1ccn([C@@H]2O[C@H](CO)[C@@H](O)C2(F)F)c(=O)n1 [gemcitabine, Gemcitabine]",–,–,tumor shrinkage and tumor growth [1]: Neither paclitaxel nor gemcitabine at the clinically applicable dose levels used in these experiments induced tumor shrinkage; prevention of tumor progression compared with AP-8 [1]: less effective than AP-8 in preventing tumor progression
"CC(=O)O[C@H]1C(=O)[C@@]2(C)[C@H]([C@H](OC(=O)c3ccccc3)[C@]3(O)C[C@H](OC(=O)[C@H](O)[C@@H](NC(=O)c4ccccc4)c4ccccc4)C(C)=C1C3(C)C)[C@]1(OC(C)=O)CO[C@@H]1C[C@@H]2O [paclitaxel, Paclitaxel]",–,–,tumor shrinkage and tumor growth [1]: Neither paclitaxel nor gemcitabine at the clinically applicable dose levels used in these experiments induced tumor shrinkage; prevention of tumor progression compared with AP-8 [1]: less effective than AP-8 in preventing tumor progression
